According to patent US20260250290A1 (BRISTOL-MYERS SQUIBB COMPANY, priority 2023, published 2026):
pIC50: −log10 of the molar value.

Target: T1, full length SGK1 (Homo sapiens, UniProt O00141)
T1 construct: 125 μM full length SGK1 (Life Technologies Part #PR7358A); purchased Life Technologies PR7358A
T1 sequence (O00141 1-431): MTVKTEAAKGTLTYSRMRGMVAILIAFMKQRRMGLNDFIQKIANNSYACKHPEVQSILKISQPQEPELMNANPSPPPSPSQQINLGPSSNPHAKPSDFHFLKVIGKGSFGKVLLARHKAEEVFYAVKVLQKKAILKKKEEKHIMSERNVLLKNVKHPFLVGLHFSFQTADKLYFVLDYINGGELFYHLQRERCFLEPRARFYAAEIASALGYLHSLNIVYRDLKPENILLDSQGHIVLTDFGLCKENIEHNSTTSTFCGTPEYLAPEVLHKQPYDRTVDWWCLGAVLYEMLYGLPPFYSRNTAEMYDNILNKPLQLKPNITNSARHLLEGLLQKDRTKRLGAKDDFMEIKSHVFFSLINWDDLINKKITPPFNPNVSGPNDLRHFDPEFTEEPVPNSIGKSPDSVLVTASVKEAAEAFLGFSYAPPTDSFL
Test: SGK1 inhibition Assay A (Caliper LabChip electrophoretic separation of fluorescent peptide substrate and phosphorylated product)
Type: biochemical
Conditions: Assay A; 20 μM ATP, 40 min incubation; read-out: SGK1 IC50

SMILES | pIC50
CN1CCC(c2cc(C(F)F)sc2C(=O)N[C@@H]2CCCN(c3cc(-c4ccc(C(N)=O)nc4)n4ncnc(N)c34)C2)C1 (stereo partly drawn) [Example 402, 5-(4-amino-5-((3R)-3-(5-(difluoromethyl)-3-(1-methylpyrrolidin-3-yl)thiophene-2-carboxamido)piperidin-1-yl)pyrrolo[2,1-f][1,2,4]triazin-7-yl)picolinamide] | 6.66
CN(C)CCn1c(C(=O)N[C@@H]2CCCN(c3cc(-c4ccc(C#N)nc4)n4ncnc(N)c34)C2)cc2ccccc21 [Example 506, (R)-N-(1-(4-amino-7-(6-cyanopyridin-3-yl)pyrrolo[2,1-f][1,2,4]triazin-5-yl)piperidin-3-yl)-1-(2-(dimethylamino)ethyl)-1H-indole-2-carboxamide] | 6.05
CN(C)CCOc1cc(Cl)sc1C(=O)N[C@@H]1CCCN(c2cc(-c3ccc(C#N)c(F)c3)n3ncnc(N)c23)C1 [Example 279, (R)-N-(1-(4-amino-7-(4-cyano-3-fluorophenyl)pyrrolo[2,1-f][1,2,4]triazin-5-yl)piperidin-3-yl)-5-chloro-3-(2-(dimethylamino)ethoxy) thiophene-2-carboxamide] | 8.52
Cn1cnc(C(=O)N[C@@H]2CCCN(c3cc(-c4ccc(S(C)(=O)=O)cc4)n4ncnc(N)c34)C2)c1 [Example 48, (R)-N-(1-(4-amino-7-(4-(methylsulfonyl)phenyl)pyrrolo[2,1-f][1,2,4]triazin-5-yl)piperidin-3-yl)-1-methyl-1H-imidazole-4-carboxamide] | 6.51
Nc1ncnn2c(-c3ccnc(C(F)F)c3)cc(N3CCC[C@@H](NC(=O)c4cc5ccccc5[nH]4)C3)c12 [Example 488, (R)-N-(1-(4-amino-7-(2-(difluoromethyl)pyridin-4-yl)pyrrolo[2,1-f][1,2,4]triazin-5-yl)piperidin-3-yl)-1H-indole-2-carboxamide] | 9.00
CN1CCN(c2cccc(C(=O)N[C@@H]3CCCN(c4cc(-c5ccc(=O)[nH]c5)n5ncnc(N)c45)C3)n2)CC1 [Example 798, (R)-N-(1-(4-amino-7-(6-oxo-1,6-dihydropyridin-3-yl)pyrrolo[2,1-f][1,2,4]triazin-5-yl)piperidin-3-yl)-6-(4-methylpiperazin-1-yl)picolinamide] | 7.68
COc1cc(C(=O)N[C@@H]2CCCN(c3cc(-c4ccncc4)n4ncnc(N)c34)C2)ccn1 [Example 127, N-[(3R)-1-[4-amino-7-(pyridin-4-yl)pyrrolo[2,1-f][1,2,4]triazin-5-yl]piperidin-3-yl]-2-methoxypyridine-4-carboxamide] | 8.30
CC(C)c1cc(C(=O)N[C@@H]2CCCN(c3cc(-c4ccc(S(C)(=O)=O)cc4)n4ncnc(N)c34)C2)on1 [Example 65, (R)-N-(1-(4-amino-7-(4-(methylsulfonyl)phenyl)pyrrolo [2,1-f][1,2,4]triazin-5-yl)piperidin-3-yl)-3-isopropylisoxazole-5-carboxamide] | 7.72
CS(=O)(=O)c1ccc(-c2cc(N3CCCC(NC(=O)c4ccccc4)C3)c3c(N)ncnn23)cc1 (stereo not shown) [Example 4, N-(1-(4-amino-7-(4-(methylsulfonyl)phenyl)pyrrolo[2,1-f][1,2,4]triazin-5-yl)piperidin-3-yl)benzamide] | 7.48
N#Cc1ccc(-c2cc(N3CCC[C@@H](NC(=O)c4nc5ccccc5s4)C3)c3c(N)ncnn23)cn1 [Example 647, (R)-N-(1-(4-amino-7-(6-cyanopyridin-3-yl)pyrrolo[2,1-f][1,2,4]triazin-5-yl)piperidin-3-yl)benzo[d]thiazole-2-carboxamide] | 7.20
COCCNC(=O)c1ccc(-c2cc(N3CCC[C@@H](NC(=O)c4ccc(Cl)s4)C3)c3c(N)ncnn23)cc1 [Example 224, (R)-N-(1-(4-amino-7-(4-((2-methoxyethyl)carbamoyl)phenyl)pyrrolo[2,1-f][1,2,4]triazin-5-yl)piperidin-3-yl)-5-chlorothiophene-2-carboxamide] | 7.96
N#Cc1ccc(-c2cc(N3CCC[C@@H](NC(=O)c4cc5ccccc5o4)C3)c3c(N)ncnn23)cn1 [Example 649] | 8.22
Nc1ncnn2c(-c3cncnc3)cc(N3CCC[C@@H](NC(=O)c4sc5ccccc5c4OC4CCNCC4)C3)c12 [Example 657, (R)—N-(1-(4-amino-7-(pyrimidin-5-yl)pyrrolo[2,1-f][1,2,4]triazin-5-yl)piperidin-3-yl)-3-(piperidin-4-yloxy)benzo[b]thiophene-2-carboxamide] | 7.29
Cc1cc(CN2CCN(C)CC2)c(C(=O)N[C@@H]2CCCN(c3cc(-c4ccnc(F)c4)n4ncnc(N)c34)C2)s1 [Example 200, (R)—N-(1-(4-amino-7-(2-fluoropyridin-4-yl)pyrrolo[2,1-f][1,2,4]triazin-5-yl)piperidin-3-yl)-5-methyl-3-((4-methylpiperazin-1-yl)methyl)thiophene-2-carboxamide] | 7.82
CS(=O)(=O)c1ccc(-c2cc(N3CCC[C@@H](NC(=O)c4ccno4)C3)c3c(N)ncnn23)cc1 [Example 64, (R)-N-(1-(4-amino-7-(4-(methylsulfonyl)phenyl)pyrrolo[2,1-f][1,2,4]triazin-5-yl)piperidin-3-yl)isoxazole-5-carboxamide] | 6.55

Results, then the compound that gave them:

pIC50 | SMILES
8.52 | CC(=O)N1CC=C(c2cc(N3CCC[C@@H](NC(=O)c4sc(Cl)cc4OC4CCN(C)CC4F)C3)c3c(N)ncnn23)C1 (stereo partly drawn) [Example 605, N-((R)-1-(7-(1-acetyl-2,5-dihydro-1H-pyrrol-3-yl)-4-aminopyrrolo[2,1-f][1,2,4]triazin-5-yl)piperidin-3-y1)-5-chloro-3-((3-fluoro-1-methylpiperidin-4-yl)oxy)thiophene-2-carboxamide]
7.68 | CC(=O)N1CC=C(c2cc(N3CCC[C@@H](NC(=O)c4sc(Cl)cc4OCC4(N)CC4)C3)c3c(N)ncnn23)C1 [Example 331, (R)—N-(1-(7-(1-acetyl-2,5-dihydro-1H-pyrrol-3-yl)-4-aminopyrrolo[2,1-f][1,2,4]triazin-5-yl)piperidin-3-yl)-3-((1-aminocyclopropyl)methoxy)-5-chlorothiophene-2-carboxamide]
8.40 | NC(=O)c1ccc(-c2cc(N3CCC[C@@H](NC(=O)c4sc(Cl)cc4OCC4CCNCC4)C3)c3c(N)ncnn23)cc1F [Example 642, (R)-N-(1-(4-amino-7-(4-carbamoyl-3-fluorophenyl)pyrrolo[2,1-f][1,2,4]triazin-5-y1)piperidin-3-y1)-5-chloro-3-(piperidin-4-ylmethoxy)thiophene-2-carboxamide]
8.15 | CC(=O)N1CC=C(c2cc(N3CCC[C@@H](NC(=O)c4ccc(C#N)s4)C3)c3c(N)ncnn23)C1 [Example 714, (R)-N-(1-(7-(1-acetyl-2,5-dihydro-1H-pyrrol-3-yl)-4-aminopyrrolo[2,1-f][1,2,4]triazin-5-yl)piperidin-3-yl)-5-cyanothiophone-2-carboxamide]
7.89 | COC(=O)N1CC=C(c2cc(N3CCC[C@@H](NC(=O)c4sc(C(F)F)cc4N4CCOCC4)C3)c3c(N)ncnn23)C1 [Example 321, Methyl (R)-3-(4-amino-5-(3-(5-(difluoromethyl)-3-morpholinothiophene-2-carboxamido)piperidin-1-yl)pyrrolo[2,1-f][1,2,4]triazin-7-yl)-2,5-dihydro-1H-pyrrole-1-carboxylate]
6.60 | CC(=O)N1CC=C(c2cc(N3CCC[C@@H](NC(=O)c4sc(C(F)F)cc4C4CCN(C(C)C)CC4)C3)c3c(N)ncnn23)C1 [Example 394, (R)-N-(1-(7-(1-acetyl-2,5-dihydro-1H-pyrrol-3-yl)-4-aminopyrrolo[2,1-f][1,2,4]triazin-5-yl)piperidin-3-yl)-5-(difluoromethyl)-3-(1-isopropylpiperidin-4-yl)thiophene-2-]
8.15 | CC(=O)N1CC=C(c2cc(N3CCC[C@@H](NC(=O)c4sc(C5CC5)cc4OC4CCN(C)CC4)C3)c3c(N)ncnn23)C1 [Example 376, (R)—N-(1-(7-(1-acetyl-2,5-dihydro-1H-pyrrol-3-yl)-4-aminopyrrolo[2,1-f][1,2,4]triazin-5-yl)piperidin-3-yl)-5-cyclopropyl-3-((1-methylpiperidin-4-yl)oxy)thiophene-2-carboxamide]
8.52 | CC(=O)NCCOc1cc(Cl)sc1C(=O)N[C@@H]1CCCN(c2cc(C3=CCN(C(C)=O)C3)n3ncnc(N)c23)C1 [Example 328, (R)-3-(2-acetamidoethoxy)-N-(1-(7-(1-acetyl-2,5-dihydro-1H-pyrrol-3-yl)-4-aminopyrrolo[2,1-f][1,2,4]triazin-5-yl)piperidin-3-yl)-5-chlorothiophene-2-carboxamide]
7.30 | CC(=O)N1CC=C(c2cc(N3CCC[C@@H](NC(=O)c4sc(Cl)cc4OC4CCN(C5CC5)CC4)C3)c3c(N)ncnn23)C1 [Example 615, (R)—N-(1-(7-(1-acetyl-2,5-dihydro-1H-pyrrol-3-yl)-4-aminopyrrolo[2,1-f][1,2,4]triazin-5-yl)piperidin-3-yl)-5-chloro-3-((1-cyclopropylpiperidin-4-yl)oxy)thiophene-2-carboxamide]
9.00 | CN(C)CCOc1cc(Cl)sc1C(=O)N[C@@H]1CCCN(c2cc(-c3ccc(C=O)cc3)n3ncnc(N)c23)C1 [Example 276, (R)—N-(1-(4-amino-7-(4-formylphenyl)pyrrolo[2,1-f][1,2,4]triazin-5-yl)piperidin-3-yl)-5-chloro-3-(2-(dimethylamino)ethoxy)thiophene-2-carboxamide]
